# From article doi:10.1101/2020.06.11.145995v1 (biorxiv, 2020)
# Read-outs that look alike come from different tables or passages of the source.
# How the values were obtained:
# Experiment in all cases: biochemical
# KIT(D816V) = KIT(D816V) (Homo sapiens, UniProt P10721, D816V)
# AURKB = AURKB (Homo sapiens, UniProt Q96GD4)
# BMPR1B = BMPR1B (Homo sapiens, UniProt O00238)
# ASK2 = ASK2 (Homo sapiens, UniProt O95382)
# JNK1 = JNK1 (Homo sapiens, UniProt P45983)
# CTK = CTK (Homo sapiens, UniProt P42679)
# MAP3K15 = MAP3K15 (Homo sapiens, UniProt Q6ZN16)
# ACVR2B = ACVR2B (Homo sapiens, UniProt Q13705)
# CSNK1G2 = CSNK1G2 (Homo sapiens, UniProt P78368)
# FGFR4 = FGFR4 (Homo sapiens, UniProt P22455)
# MEK5 = MEK5 (Homo sapiens, UniProt Q13163)
# LOK = LOK (Homo sapiens, UniProt O94804)
# MAP4K2 = MAP4K2 (Homo sapiens, UniProt Q12851)
# BLK = BLK (Homo sapiens, UniProt P51451)
# CLK4 = CLK4 (Homo sapiens, UniProt Q9HAZ1)
# MAP3K3 = MAP3K3 (Homo sapiens, UniProt Q99759)
# HIPK4 = HIPK4 (Homo sapiens, UniProt Q8NE63)
# FLT3(R834Q) = FLT3(R834Q) (Homo sapiens, UniProt P36888, R834Q)
# DRAK2 = DRAK2 (Homo sapiens, UniProt O94768)
# MAP4K5 = MAP4K5 (Homo sapiens, UniProt Q9Y4K4)
# CSK = CSK (Homo sapiens, UniProt P41240)
# MET(M1250T) = MET(M1250T) (Homo sapiens, UniProt P08581, M1250T)
# FLT3(D835Y) = FLT3(D835Y) (Homo sapiens, UniProt P36888, D835Y)
# DMPK = DMPK (Homo sapiens, UniProt Q09013)
# CDKL5 = CDKL5 (Homo sapiens, UniProt O76039)
# MEK2 = MEK2 (Homo sapiens, UniProt P36507)
# IKK-alpha = IKK-alpha (Homo sapiens, UniProt O15111)
# BMPR1A = BMPR1A (Homo sapiens, UniProt P36894)
# CDK7 = CDK7 (Homo sapiens, UniProt P50613)
# HPK1 = HPK1 (Homo sapiens, UniProt Q92918)
# [1] = read-out: HYJ-2-002-1 (1uM) % control
# [2] = read-out: CPT-1-70-1 (1uM) % control
# Sequence of CTK (P42679 whole entry): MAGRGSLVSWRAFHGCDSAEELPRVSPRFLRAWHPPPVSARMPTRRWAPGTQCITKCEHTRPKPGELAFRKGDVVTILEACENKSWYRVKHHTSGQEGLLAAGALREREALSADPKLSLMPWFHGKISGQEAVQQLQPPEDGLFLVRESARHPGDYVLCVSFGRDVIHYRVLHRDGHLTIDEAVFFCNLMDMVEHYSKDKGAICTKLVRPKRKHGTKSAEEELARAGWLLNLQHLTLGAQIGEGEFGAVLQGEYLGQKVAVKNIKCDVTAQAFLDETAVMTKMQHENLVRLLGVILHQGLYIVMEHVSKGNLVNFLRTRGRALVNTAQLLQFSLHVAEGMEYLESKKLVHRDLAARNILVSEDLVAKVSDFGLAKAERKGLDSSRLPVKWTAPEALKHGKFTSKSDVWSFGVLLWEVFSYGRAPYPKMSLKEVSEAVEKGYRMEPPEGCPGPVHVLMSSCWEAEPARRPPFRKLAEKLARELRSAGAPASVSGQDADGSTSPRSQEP
# Sequence of BMPR1B (O00238 whole entry): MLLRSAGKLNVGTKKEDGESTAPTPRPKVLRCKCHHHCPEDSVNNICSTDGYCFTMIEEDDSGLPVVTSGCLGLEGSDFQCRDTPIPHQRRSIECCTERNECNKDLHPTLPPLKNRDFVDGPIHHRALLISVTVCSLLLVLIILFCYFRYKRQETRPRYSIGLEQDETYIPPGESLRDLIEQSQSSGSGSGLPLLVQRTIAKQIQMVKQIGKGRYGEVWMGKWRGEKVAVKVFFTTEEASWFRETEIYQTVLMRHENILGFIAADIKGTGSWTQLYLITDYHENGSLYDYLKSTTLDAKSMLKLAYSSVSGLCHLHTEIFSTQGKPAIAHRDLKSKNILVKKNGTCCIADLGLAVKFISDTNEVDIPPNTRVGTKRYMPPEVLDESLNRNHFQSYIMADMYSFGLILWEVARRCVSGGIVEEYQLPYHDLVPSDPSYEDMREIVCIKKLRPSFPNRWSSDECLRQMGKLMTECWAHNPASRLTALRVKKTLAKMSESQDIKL
# Sequence of CLK4 (Q9HAZ1 whole entry): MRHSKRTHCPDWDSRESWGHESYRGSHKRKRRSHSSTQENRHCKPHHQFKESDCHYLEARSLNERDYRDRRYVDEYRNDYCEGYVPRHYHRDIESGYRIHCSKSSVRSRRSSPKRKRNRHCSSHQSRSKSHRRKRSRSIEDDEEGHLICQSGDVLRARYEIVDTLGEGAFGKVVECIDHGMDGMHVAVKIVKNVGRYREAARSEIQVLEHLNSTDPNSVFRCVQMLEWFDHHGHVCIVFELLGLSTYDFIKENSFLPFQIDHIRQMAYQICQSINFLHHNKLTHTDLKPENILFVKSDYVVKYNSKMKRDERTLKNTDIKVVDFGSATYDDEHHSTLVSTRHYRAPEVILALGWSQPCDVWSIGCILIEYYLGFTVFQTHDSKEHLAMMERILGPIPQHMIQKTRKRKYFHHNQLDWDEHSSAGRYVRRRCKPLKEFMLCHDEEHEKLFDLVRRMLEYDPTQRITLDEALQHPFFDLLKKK
# Sequence of BMPR1A (P36894 whole entry): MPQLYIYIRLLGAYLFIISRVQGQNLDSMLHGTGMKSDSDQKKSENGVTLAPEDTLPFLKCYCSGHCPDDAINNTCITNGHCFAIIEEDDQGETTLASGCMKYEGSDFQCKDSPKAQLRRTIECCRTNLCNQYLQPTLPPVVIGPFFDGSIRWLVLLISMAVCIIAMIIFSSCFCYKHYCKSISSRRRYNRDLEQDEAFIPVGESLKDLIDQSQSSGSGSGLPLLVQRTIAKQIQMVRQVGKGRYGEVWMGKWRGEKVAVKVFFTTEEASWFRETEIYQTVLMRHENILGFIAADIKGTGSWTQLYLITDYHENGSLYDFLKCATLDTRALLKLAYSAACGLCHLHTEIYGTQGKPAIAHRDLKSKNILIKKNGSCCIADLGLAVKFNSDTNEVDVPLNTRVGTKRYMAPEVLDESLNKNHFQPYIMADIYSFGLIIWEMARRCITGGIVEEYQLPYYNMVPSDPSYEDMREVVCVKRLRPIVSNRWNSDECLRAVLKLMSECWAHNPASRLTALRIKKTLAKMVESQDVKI
# Sequence of CSNK1G2 (P78368 whole entry): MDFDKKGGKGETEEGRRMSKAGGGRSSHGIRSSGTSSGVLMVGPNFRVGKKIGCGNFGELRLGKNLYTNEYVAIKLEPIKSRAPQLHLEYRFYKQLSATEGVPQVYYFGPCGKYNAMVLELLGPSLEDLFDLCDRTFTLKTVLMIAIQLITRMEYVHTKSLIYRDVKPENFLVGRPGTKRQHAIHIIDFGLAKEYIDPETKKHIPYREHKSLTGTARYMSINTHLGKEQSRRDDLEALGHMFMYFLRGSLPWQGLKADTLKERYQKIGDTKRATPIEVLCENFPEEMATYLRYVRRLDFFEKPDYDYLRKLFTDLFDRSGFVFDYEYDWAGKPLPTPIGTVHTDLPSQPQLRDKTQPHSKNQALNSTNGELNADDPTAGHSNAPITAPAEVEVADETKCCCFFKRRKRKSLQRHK
# Sequence of CSK (P41240 whole entry): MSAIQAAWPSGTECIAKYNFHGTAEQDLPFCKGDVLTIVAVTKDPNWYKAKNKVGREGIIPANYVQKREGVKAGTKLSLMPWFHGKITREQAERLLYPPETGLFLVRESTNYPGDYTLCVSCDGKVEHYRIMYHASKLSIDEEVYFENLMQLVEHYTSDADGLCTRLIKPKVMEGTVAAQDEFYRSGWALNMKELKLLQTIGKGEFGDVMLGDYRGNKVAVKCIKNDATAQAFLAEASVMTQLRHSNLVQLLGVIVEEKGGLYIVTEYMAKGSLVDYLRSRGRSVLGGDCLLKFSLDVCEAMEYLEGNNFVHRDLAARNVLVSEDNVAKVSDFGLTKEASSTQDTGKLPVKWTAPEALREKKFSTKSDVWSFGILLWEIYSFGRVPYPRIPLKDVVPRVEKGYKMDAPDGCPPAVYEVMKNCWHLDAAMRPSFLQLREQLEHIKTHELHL
# Sequence of BLK (P51451 whole entry): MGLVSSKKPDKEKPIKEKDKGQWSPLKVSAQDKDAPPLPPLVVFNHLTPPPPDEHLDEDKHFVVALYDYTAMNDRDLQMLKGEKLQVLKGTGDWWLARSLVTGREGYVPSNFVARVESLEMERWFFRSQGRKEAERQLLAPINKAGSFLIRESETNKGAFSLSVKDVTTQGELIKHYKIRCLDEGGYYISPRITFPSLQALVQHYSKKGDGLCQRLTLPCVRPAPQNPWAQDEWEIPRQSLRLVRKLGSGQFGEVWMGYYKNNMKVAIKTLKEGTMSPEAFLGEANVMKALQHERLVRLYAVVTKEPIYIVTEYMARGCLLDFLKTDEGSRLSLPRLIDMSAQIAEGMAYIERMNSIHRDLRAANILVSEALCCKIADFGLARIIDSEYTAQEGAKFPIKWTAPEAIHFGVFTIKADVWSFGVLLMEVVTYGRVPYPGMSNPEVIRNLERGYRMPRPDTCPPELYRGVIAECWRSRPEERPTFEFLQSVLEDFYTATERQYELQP
# Sequence of DMPK (Q09013 whole entry): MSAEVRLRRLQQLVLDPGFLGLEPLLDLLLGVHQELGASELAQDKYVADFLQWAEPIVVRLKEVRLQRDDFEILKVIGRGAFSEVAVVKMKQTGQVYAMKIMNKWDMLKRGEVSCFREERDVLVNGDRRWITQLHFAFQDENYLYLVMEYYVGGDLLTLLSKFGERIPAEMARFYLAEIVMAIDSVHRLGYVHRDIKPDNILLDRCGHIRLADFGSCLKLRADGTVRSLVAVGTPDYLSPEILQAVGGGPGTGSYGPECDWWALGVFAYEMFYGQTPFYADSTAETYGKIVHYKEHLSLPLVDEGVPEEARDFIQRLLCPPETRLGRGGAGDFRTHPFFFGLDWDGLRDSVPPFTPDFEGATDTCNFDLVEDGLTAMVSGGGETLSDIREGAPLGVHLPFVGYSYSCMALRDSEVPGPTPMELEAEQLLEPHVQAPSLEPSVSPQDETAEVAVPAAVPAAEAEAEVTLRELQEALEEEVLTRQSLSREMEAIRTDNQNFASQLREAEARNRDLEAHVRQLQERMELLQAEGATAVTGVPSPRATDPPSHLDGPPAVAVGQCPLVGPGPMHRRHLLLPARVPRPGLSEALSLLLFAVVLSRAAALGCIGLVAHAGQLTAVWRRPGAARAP
# Sequence of MAP3K3 (Q99759 whole entry): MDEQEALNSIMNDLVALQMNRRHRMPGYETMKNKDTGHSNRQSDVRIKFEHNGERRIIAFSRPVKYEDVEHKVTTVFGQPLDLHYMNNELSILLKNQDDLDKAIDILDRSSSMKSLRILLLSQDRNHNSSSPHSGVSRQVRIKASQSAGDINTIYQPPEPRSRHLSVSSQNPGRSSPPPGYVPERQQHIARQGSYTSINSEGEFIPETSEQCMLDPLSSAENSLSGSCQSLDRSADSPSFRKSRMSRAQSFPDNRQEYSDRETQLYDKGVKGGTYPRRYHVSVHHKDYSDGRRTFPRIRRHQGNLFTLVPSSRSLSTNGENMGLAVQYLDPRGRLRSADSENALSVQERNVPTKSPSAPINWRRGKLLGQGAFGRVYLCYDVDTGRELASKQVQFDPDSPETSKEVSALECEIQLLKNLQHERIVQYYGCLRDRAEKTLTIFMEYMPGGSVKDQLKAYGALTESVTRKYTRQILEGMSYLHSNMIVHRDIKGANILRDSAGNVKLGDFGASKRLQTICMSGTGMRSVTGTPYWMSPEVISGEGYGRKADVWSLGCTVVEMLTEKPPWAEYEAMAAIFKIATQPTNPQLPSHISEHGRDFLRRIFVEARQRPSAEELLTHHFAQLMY
# Sequence of AURKB (Q96GD4 whole entry): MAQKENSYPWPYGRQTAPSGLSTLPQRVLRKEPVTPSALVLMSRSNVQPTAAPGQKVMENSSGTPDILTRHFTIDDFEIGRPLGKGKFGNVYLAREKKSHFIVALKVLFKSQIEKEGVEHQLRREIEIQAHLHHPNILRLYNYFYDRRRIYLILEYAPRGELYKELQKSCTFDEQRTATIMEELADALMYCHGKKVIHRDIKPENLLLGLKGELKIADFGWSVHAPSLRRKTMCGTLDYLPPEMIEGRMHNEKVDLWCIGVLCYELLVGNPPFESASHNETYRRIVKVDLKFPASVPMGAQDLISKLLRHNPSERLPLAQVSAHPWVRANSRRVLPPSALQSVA
structure (smiles),measurement,setting,value
CCN1CCN(Cc2ccc(NC(=O)c3ccc(C)c(CCc4cnc5[nH]ccc5c4OC)c3)cc2C(F)(F)F)CC1 [HYJ-2-002-1],remaining activity at 1 µM,KIT(D816V); [1],9.2%
same,remaining activity at 1 µM,AURKB; [1],43%
same,remaining activity at 1 µM,BMPR1B; [1],100%
same,remaining activity at 1 µM,ASK2; [1],100%
same,remaining activity at 1 µM,JNK1; [1],72%
same,remaining activity at 1 µM,CTK; [1],91%
same,remaining activity at 1 µM,MAP3K15; [1],100%
same,remaining activity at 1 µM,ACVR2B; [1],100%
same,remaining activity at 1 µM,CSNK1G2; [1],45%
same,remaining activity at 1 µM,FGFR4; [1],4.4%
same,remaining activity at 1 µM,MEK5; [1],0.85%
same,remaining activity at 1 µM,LOK; [1],0.75%
same,remaining activity at 1 µM,MAP4K2; [1],4.6%
same,remaining activity at 1 µM,BLK; [1],0.1%
same,remaining activity at 1 µM,CLK4; [1],69%
same,remaining activity at 1 µM,MAP3K3; [1],1.6%
same,remaining activity at 1 µM,HIPK4; [1],2.6%
same,remaining activity at 1 µM,FLT3(R834Q); [1],44%
same,remaining activity at 1 µM,DRAK2; [1],57%
same,remaining activity at 1 µM,MAP4K5; [1],16%
same,remaining activity at 1 µM,CSK; [1],0.8%
same,remaining activity at 1 µM,MET(M1250T); [1],61%
same,remaining activity at 1 µM,FLT3(D835Y); [1],38%
same,remaining activity at 1 µM,DMPK; [1],100%
same,remaining activity at 1 µM,CDKL5; [1],100%
same,remaining activity at 1 µM,MEK2; [1],22%
same,remaining activity at 1 µM,IKK-alpha; [1],0.2%
same,remaining activity at 1 µM,BMPR1A; [1],100%
same,remaining activity at 1 µM,CDK7; [1],44%
same,remaining activity at 1 µM,HPK1; [1],3.4%
CN1CCN(c2ccc(Nc3nc(Oc4ccc(NC(=O)CCl)cc4)c4cc[nH]c4n3)cc2)CC1 [CPT1-70-1],remaining activity at 1 µM,KIT(D816V); [2],60%
same,remaining activity at 1 µM,AURKB; [2],61%
same,remaining activity at 1 µM,BMPR1B; [2],100%
same,remaining activity at 1 µM,ASK2; [2],100%
same,remaining activity at 1 µM,JNK1; [2],2.4%
same,remaining activity at 1 µM,CTK; [2],100%
same,remaining activity at 1 µM,MAP3K15; [2],100%
same,remaining activity at 1 µM,ACVR2B; [2],100%
same,remaining activity at 1 µM,CSNK1G2; [2],0.7%
same,remaining activity at 1 µM,FGFR4; [2],60%
same,remaining activity at 1 µM,MEK5; [2],18%
same,remaining activity at 1 µM,LOK; [2],100%
same,remaining activity at 1 µM,MAP4K2; [2],25%
same,remaining activity at 1 µM,BLK; [2],1.6%
same,remaining activity at 1 µM,CLK4; [2],6.5%
same,remaining activity at 1 µM,MAP3K3; [2],16%
same,remaining activity at 1 µM,HIPK4; [2],74%
same,remaining activity at 1 µM,FLT3(R834Q); [2],51%
same,remaining activity at 1 µM,DRAK2; [2],90%
same,remaining activity at 1 µM,MAP4K5; [2],25%
same,remaining activity at 1 µM,CSK; [2],93%
same,remaining activity at 1 µM,MET(M1250T); [2],39%
same,remaining activity at 1 µM,FLT3(D835Y); [2],0.35%
same,remaining activity at 1 µM,DMPK; [2],41%
same,remaining activity at 1 µM,CDKL5; [2],100%
same,remaining activity at 1 µM,MEK2; [2],19%
same,remaining activity at 1 µM,IKK-alpha; [2],85%
same,remaining activity at 1 µM,BMPR1A; [2],100%
same,remaining activity at 1 µM,CDK7; [2],100%
same,remaining activity at 1 µM,HPK1; [2],13%
